Experiment [1] concerns Hep3B (human hepatoma cell line) cells. Briefly: AAV2/6 delivery of albumin ZFNs to Hep3B cells after growth factor receptor inhibitor pre-incubation; % indels by deep sequencing. The experiment is classed as cell-based. The settings on record: serum-free pre-incubation, AAV2/6 albumin ZFNs MOI 3e4 vg/cell. The method, then: In order to test the relative contribution of co-receptors to AAV transduction, inhibitors against epidermal growth factor receptor (EGFR), hepatocyte growth factor receptor (HGFR), fibroblast growth factor receptor (FGFR) and platelet-derived growth factor receptor (PDGFR) were used prior to in vitro AAV2/6 transduction experiments in Hep3B (human hepatoma cell line) cells using zinc-finger nucleases (ZFNs) targeting the human albumin locus. Hep3B cells were plated at a density of 1×10^5 cells per well in a 48-well tissue culture plate in 300 μL complete growth media the day before transduction with AAV2/6. On the morning of transduction, the cells were washed three times with serum-free media and incubated in the serum-free media for three hours. Growth factor receptor inhibitors were added to the wells and incubated for one hour. AAV2/6 particles to deliver ZFNs targeted to the albumin locus were then added to the wells. After three hours, serum was added to the wells to a final concentration of 10%. The cells were harvested on day 4 post-transduction. Genomic DNA was extracted and analyzed by deep sequencing (MiSeq) at the albumin locus. The growth factor receptor inhibitors used are shown below in Table 1, and they were used in the experiment in the concentrations indicated in FIG. 3, where each inhibitor is labeled by its target.

Experiment [2] concerns human patient-derived primary hepatocytes. Briefly: AAV2/6 ZFN transduction of primary hepatocytes with PDGFR inhibitor; % indels. The class given is cell-based. The following applies: 9 μM.
Experimental: For human hepatocytes, 48-well cell culture dishes were purchased pre-coated with collagen (Life Technologies). Plates were incubated for 1 hour at 37° C. Thawing/plating media was prepared by combining 18 mL InVitroGRO CP medium (BioreclamationIVT) and 400 μL Torpedo antibiotic mix (Celsis In Vitro Technologies). Once the plates were prepared, the plate-able human hepatocytes (Lot# AKB), were transferred from the liquid nitrogen vapor phase directly into the 37° C. water bath and thawed under gently stirring. The cells were transferred directly into a 50 ml conical tube containing 5 mL of pre-warmed thawing/plating medium. To retrieve all the cells, the vial was washed with 1 mL of thawing/plating medium, which was added to the cells. Following resuspension of the cells, a small aliquot (20 μL) was removed to perform a cell count and to determine cell viability using trypan blue solution (1:5; Corning, Cat#25-900-C1). The cells were then centrifuged at 75×g for 5 minutes, the supernatant was removed and the cells were resuspended at 1e6 cells/mL. Cells were seeded at 3e5 cells/well in the coated 48-well plates. Cells were then incubated in a 37° C./5% CO2 incubator.
One day after the cells were plated, cells were switched to HCM maintenance medium (Lonza, HBM and HCM SingleQuots). […] Genomic DNA was extracted and analyzed by deep sequencing (MiSeq) at the albumin locus.

The structures appear in SMILES notation.

With `Cc1[nH]c(/C=C2\C(=O)Nc3ccc(S(=O)(=O)N(C)c4cccc(Cl)c4)cc32)c(C)c1C(=O)N1CCN(C)CC1` [HGFRi, SU11274], the “AAV transduction compared to control (% indels)” value (“AAV transduction … (% indels)” for short) in experiment [1] is reported as “mild stimulation”.

For the compound `COc1cc2ncnc(Nc3ccc(F)c(Cl)c3)c2cc1OCCCN1CCOCC1` [EGFRi, Gefitinib], the “AAV transduction … (% indels)” value in experiment [1] is reported as “mild inhibition”.

For the compound `CCN1CCN(c2ccc(Nc3cc(N(C)C(=O)Nc4c(Cl)c(OC)cc(OC)c4Cl)ncn3)cc2)CC1` [FGFRi, BGJ398], the “AAV transduction … (% indels)” value in experiment [1] was “mild stimulation”.

Consider `CC1(COc2ccc3c(c2)ncn3-c2ccc3cccc(N4CCC(N)CC4)c3n2)COC1` [Crenolanib], for which the “indels detected as compared to no inhibitor” value in experiment [2] is given as “large increase”.

These data come from patent US10450585B2, “Delivery methods and compositions for nuclease-mediated genome engineering” (Sangamo Therapeutics, Inc., priority 2015, dated 2019).
